Experimental data as given in article PMC9603010 (ACS Bio & Med Chem Au, 2022).
Where a name gives a salt, the structure may show the parent alone.

test system: SARS-CoV-2 (USA-WA1/2020); assay type: cell-based; settings: not given

SMILES | reduction of the number of infected cells compared to vehicle
c1ccc2c(c1)OCC(C1=NCCN1)O2 (stereo not drawn) [idazoxan hydrochloride, reference compound] | more than 90%

test system: HEK293T cells; settings: 48 h, multiple concentrations

SMILES | impact on cell viability
O=C(O[C@@H]1Cc2c(O)cc(O)cc2O[C@@H]1c1cc(O)c(O)c(O)c1)c1cc(O)c(O)c(O)c1 [epigallocatechin gallate] | without significant impact on cell viability
C=C1C(=O)O[C@H]2[C@H]1CC/C(C)=C/CC[C@@]1(C)O[C@@H]21 [parthenolide] | without significant impact on cell viability
c1ccc2c(c1)OCC(C1=NCCN1)O2 (stereo not drawn) [idazoxan, reference compound] | without significant impact on cell viability
NC(CO)C(=O)NNCc1ccc(O)c(O)c1O (stereo not drawn) [benserazide, reference compound] | without significant impact on cell viability
COc1c(-c2coc3cc4c(cc3c2=O)CC(O)C(C)(C)O4)ccc2c1C=CC(C)(C)O2 (stereo not drawn) [mundulone] | without significant impact on cell viability
